Series [1] is described as follows: Determination of cationic lipid levels in rat liver (LC/MS-MS). The series is classed as in vivo. To be noted: rats dosed with RDV containing the compound; compared with RDV containing DLinKC2DMA (Compound 20) or MC3 (Compound 21); FIG. 3. How it is done: Liver tissue was weighed into 20-ml vials and homogenized in 9 v/w of water using a GenoGrinder 2000 (OPS Diagnostics, 1600 strokes/min, 5 min). A 50 μL aliquot, of each tissue homogenate was mixed with 300 μL of extraction/protein precipitating solvent (50/50 acetonitrile/methanol containing 500 nM internal standard) and the plate was centrifuged to sediment precipitated protein. A volume of 200 μL of each supernatant was then transferred to separate wells of a 96-well plate and 10 μl samples were directly analyzed by LC/MS-MS.
Standards were prepared by spiking known amounts of a methanol stock solution of compound into untreated rat liver homogenate (9 vol water/weight liver). Aliquots (50 μL) each standard/liver homogenate was mixed with 300 μL of extraction/protein precipitating solvent (50/50 acetonitrile/methanol containing 500 nM internal standard) and the plate was centrifuged to sediment precipitated protein. A volume of 200 μL of each supernatant was transferred to separate wells of a 96-well plate and 10 μl of each standard was directly analyzed by LC/MS-MS.
Absolute quantification versus standards prepared and extracted from liver homogenate was performed using an Aria LX-2 HPLC system (Thermo Scientific) coupled to an API 4000 triple quadrupole mass spectrometer (Applied Biosystems). […]

Series [2] has as its system mRNA transcript for the firefly (Photinus pyralis) luciferase gene. The experiment in a line: Mouse in vivo evaluation of efficacy (luciferase siRNA LNP, LSL-Luc transgenic mice, IVIS imaging). To be noted: RDV containing the compound + Luc siRNA, tail vein, 0.1 to 0.5 mg/kg siRNA, 48 hours post dose; compared with RDV containing octyl-CLinDMA (OCD); FIG. 1. Here is the method:
LNPs utilizing Compounds 1-12, in the nominal compositions described immediately above, were evaluated for in vivo efficacy. The siRNA targets the mRNA transcript for the firefly (Photinus pyralis) luciferase gene (Accession #M15077). […] The in vivo luciferase model employs a transgenic mouse in which the firefly luciferase coding sequence is present in all cells. ROSA26-LoxP-Stop-LoxP-Luc (LSL-Luc) transgenic mice licensed from the Dana Farber Cancer Institute are Induced to express the Luciferase gene by first removing the LSL sequence with a recombinant Ad-Cre virus (Vector Biolabs). Due to the organotropic nature of the virus, expression is limited to the liver when delivered via tail vein injection. Luciferase expression levels in liver are quantitated by measuring light output, using an IVIS imager (Xenogen) following administration of the luciferin substrate (Caliper Life Sciences). Pre-dose luminescence levels are measured prior to administration of the RDVs. Luciferin in PBS (15 mg/mL) is intraperitoneally (IP) injected in a volume of 150 μL. After a four minute incubation period mice are anesthetized with isoflurane and placed in the IVIS imager. The RDVs (containing siRNA) in PBS vehicle were tail vein injected n a volume of 0.2 mL. […] In vivo efficacy results are expressed as % inhibition of luminescence relative to pre-dose luminescence levels. […]

Series [3] can be described thus: Rat in vivo toxicity: survival after LNP dosing. Particulars: for rats that failed to survive 48 hours: 3 mg/kg.

Turning to `CCCCC/C=C\C/C=C\CCCCCCCCOC[C@H](CCCCCCCCC)N(C)C` [Compound 1, (2S)—N,N-dimethyl-1-[(9Z,12Z)-octadeca-9,12-dien-1-yloxy]undecan-2-amine], the “cationic lipid liver levels” value in series [1] is “lower”. Moreover, the “in vivo efficacy (% inhibition of luminescence relative to pre-dose luminescence levels)” value in series [2] is listed as “Greater efficacy”. In addition, the “rats that survived at 48 hours post dose” value in series [3] (female, Sprague-Dawley (Crl:CD(SD)), rat, in vivo, 48 h) was 1 out of 4.

In the case of `CCCCC/C=C\C/C=C\CCCCCCCCC1(CCCCCCCC/C=C\C/C=C\CCCCC)OCC(CCN(C)C)O1` (centres unmarked) [Compound 20, DLinKC2DMA], the “rats that failed to survive 48 hours” value in series [3] was 3 out of 4.

With `CCCCC/C=C\C/C=C\CCCCCCCCC(CCCCCCCC/C=C\C/C=C\CCCCC)OC(=O)CCCN(C)C` [Compound 21, MC3], in series [3], the “rats that failed to survive 48 hours” value is on record as 2 out of 4.

For the origin of these results see US9725720B2, “Low molecular weight cationic lipids for oligonucleotide delivery” (SIRNA THERAPEUTICS, INC., priority 2010, dated 2017).
